From US12209085B2, “RET inhibitors, pharmaceutical compositions and uses thereof” (SUNSHINE LAKE PHARMA CO., LTD., priority 2018, dated 2025)

Assays:
[1] = target: Ret wt (Homo sapiens (Human), UniProt P07949); test: HTRF kinase inhibition assay, Ret wt; type: biochemical; details: HTRF method
Description: (§1) • 1. […] 1) • 18) Echo (Labcyte, 550) • 3.
(§2) [formula] • Ratiopositive control: average of CEP-32496 readings in all positive control wells • Rationegative control: average of DMSO readings in all negative control wells • Wherein, the chemical name of CEP-32496 is: N-[3-[(6,7-dimethoxy-4-quinazolinyl)oxy]phenyl]-N′-[5-(2,2,2-trifluoro-1,1-dimethylethyl)-3-isoxazolyl]urea. • 4.3 Calculation of the IC50 and Drawing of the inhibition curve of the compound: • The IC50 (half inhibitory concentration) of the compound was obtained using the following non-linear fitting formula: Data analysis was performed using Graphpad 6.0 software. Y=Bottom+(Top−Bottom)/(1+10^((Log IC50−X)*Hill Slope)) • X: compound concentration log value Y: inhibition, % • 5.

[2] = target: Ret V804M (Homo sapiens (Human), UniProt P07949, V804M); test: HTRF kinase inhibition assay, Ret V804M; type: biochemical; details: HTRF method
Description: as §1, §2

Sequence of Ret V804M (P07949 29-1114 V804M): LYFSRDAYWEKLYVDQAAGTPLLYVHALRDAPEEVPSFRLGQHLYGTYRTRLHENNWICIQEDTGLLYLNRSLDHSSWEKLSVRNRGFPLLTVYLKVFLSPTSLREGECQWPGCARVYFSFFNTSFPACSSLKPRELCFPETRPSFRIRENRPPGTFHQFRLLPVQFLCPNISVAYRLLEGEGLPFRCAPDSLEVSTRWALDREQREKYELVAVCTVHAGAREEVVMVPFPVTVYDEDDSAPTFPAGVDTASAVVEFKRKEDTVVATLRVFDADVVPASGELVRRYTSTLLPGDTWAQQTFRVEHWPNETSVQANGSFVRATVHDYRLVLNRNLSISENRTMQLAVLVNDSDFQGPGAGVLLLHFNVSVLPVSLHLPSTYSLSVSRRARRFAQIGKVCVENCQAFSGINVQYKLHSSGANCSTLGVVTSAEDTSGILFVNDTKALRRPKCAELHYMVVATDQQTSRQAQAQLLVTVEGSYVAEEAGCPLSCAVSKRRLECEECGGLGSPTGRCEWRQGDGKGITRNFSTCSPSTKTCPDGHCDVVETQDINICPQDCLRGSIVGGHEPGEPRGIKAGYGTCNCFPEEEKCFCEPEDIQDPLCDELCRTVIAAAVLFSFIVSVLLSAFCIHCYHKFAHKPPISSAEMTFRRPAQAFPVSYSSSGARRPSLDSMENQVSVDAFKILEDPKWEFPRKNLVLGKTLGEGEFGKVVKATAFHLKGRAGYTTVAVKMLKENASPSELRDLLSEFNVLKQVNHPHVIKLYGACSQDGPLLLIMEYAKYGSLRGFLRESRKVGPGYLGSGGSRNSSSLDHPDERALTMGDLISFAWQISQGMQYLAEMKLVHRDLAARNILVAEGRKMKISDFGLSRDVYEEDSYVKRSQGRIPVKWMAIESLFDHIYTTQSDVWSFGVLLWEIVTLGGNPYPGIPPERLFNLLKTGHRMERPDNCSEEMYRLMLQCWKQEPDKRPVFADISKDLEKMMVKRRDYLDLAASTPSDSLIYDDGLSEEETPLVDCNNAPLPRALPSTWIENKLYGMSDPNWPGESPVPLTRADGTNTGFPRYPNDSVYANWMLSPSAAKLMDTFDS
Sequence of Ret wt (P07949 29-1114): as the sequence (P07949 29-1114 V804M) above, with M776V counted along it

SMILES	IC50 [1]	IC50 [2]
C#Cc1ccc(O[C@@H]2CCN(c3ccc(-c4cc(-c5cnn(C(F)F)c5)cn5ncc(C#N)c45)cn3)C2)cc1 [Example 286, (R)-6-(1-(difluoromethyl)-1H-pyrazol-4-yl)-4-(6-(3-(4-ethynylphenoxy)pyrrolidin-1-yl)pyridin-3-yl)pyrazolo[1,5-a]pyridine-3-carbonitrile]	0.85 nM	0.85 nM
C#CCN1C2CC1CN(c1ccc(-c3cc(-c4cnn(C)c4)cn4ncc(C#N)c34)cn1)C2 [Example 195, 6-(1-methyl-1H-pyrazol-4-yl)-4-(6-(6-(prop-2-yn-1-yl)-3,6-diazabicyclo[3.1.1]heptan-3-yl)pyridin-3-yl)pyrazolo[1,5-a]pyridine-3-carbonitrile]	0.29 nM	–
C#Cc1cc(F)c(C(=O)N2CCN(c3ccc(-c4cc(-c5cnn(C)c5)cn5ncc(C#N)c45)cn3)CC2)c(F)c1 [Example 234, 4-(6-(4-(4-ethynyl-2,6-difluorobenzoyl)piperazin-1-yl)pyridin-3-yl)-6-(1-methyl-1H-pyrazol-4-yl)pyrazolo[1,5-a]pyridine-3-carbonitrile]	4 nM	62.3 nM
C#Cc1cc(F)c(C(=O)N2C3CC2CN(c2ccc(-c4cc(-c5cnn(C)c5)cn5ncc(C#N)c45)cn2)C3)c(F)c1 [Example 235]	0.4 nM	10 nM
C#Cc1cccc(CN2C3CC2CN(c2ccc(-c4cc(-c5cnn(C)c5)cn5ncc(C#N)c45)cn2)C3)n1 [Example 221, 4-(6-(6-((6-ethynylpyridin-2-yl)methyl)-3,6-diazabicyclo[3.1.1]hept-3-yl)pyridin-3-yl)-6-(1-methyl-1H-pyrazol-4-yl)pyrazolo[1,5-a]pyridine-3-carbonitrile]	0.55 nM	12.4 nM
COc1cncc(C#CC(=O)N2C3CC2CN(c2ccc(-c4cc(-c5cnn(C)c5)cn5ncc(C#N)c45)cn2)C3)c1 [Example 270, 4-(6-(6-(3-(5-methoxypyridin-3-yl)propioloyl)-3,6-diazabicyclo[3.1.1]heptan-3-yl)pyridin-3-yl)-6-(1-methyl-1H-pyrazol-4-yl)pyrazolo[1,5-a]pyridine-3-carbonitrile]	1.1 nM	4.9 nM
C#Cc1ccc(OC2CN(c3ccc(-c4cc(-c5c(C)noc5C)cn5ncc(C#N)c45)cn3)C2)cn1 [Example 282, 6-(3,5-dimethylisoxazol-4-yl)-4-(6-(3-((6-ethynylpyridin-3-yl)oxy)azetidin-1-yl)pyridin-3-yl)pyrazolo[1,5-a]pyridine-3-carbonitrile]	2.9 nM	60.8 nM
C#Cc1ccc(C(=O)N2C3CC2CN(c2ccc(-c4cc(-c5cnn(C)c5)cn5ncc(C#N)c45)cn2)C3)nc1 [Example 238, 4-(6-(6-(5-ethynylpicolinoyl)-3,6-diazabicyclo[3.1.1]heptan-3-yl)pyridin-3-yl)-6-(1-methyl-1H-pyrazol-4-yl)pyrazolo[1,5-a]pyridine-3-carbonitrile]	0.3 nM	2.75 nM
C#Cc1cncc(CN2C3CC2CN(c2ccc(-c4cc(-c5cnn(C)c5)cn5ncc(C#N)c45)cn2)C3)c1 [Example 187, 4-(6-(6-((5-ethynylpyridin-3-yl)methyl)-3,6-diazabicyclo[3.1.1]heptan-3-yl)pyridin-3-yl)-6-(1-methyl-1H-pyrazol-4-yl)pyrazolo[1,5-a]pyridine-3-carbonitrile]	0.28 nM	–
C#Cc1cccc(C(=O)N2CCC3(CCN(c4ccc(-c5cc(-c6cnn(C)c6)cn6ncc(C#N)c56)cn4)CC3)C2)c1 [Example 229, 4-(6-(2-(3-ethynyl)-2,8-diazaspiro[4.5]dec-8-yl)pyridin-3-yl)-6-(1-methyl-1H-pyrazol-4-yl)pyrazolo[1,5-a]pyridine-3-carbonitrile]	25.1 nM	–
C#Cc1ccc(C(=O)NC2(C)CCN(c3ccc(-c4cc(-c5cnn(C)c5)cn5ncc(C#N)c45)cn3)CC2)cc1 [Example 2, N-(1-(5-(3-cyano-6-(1-methyl-1H-pyrazol-4-yl)pyrazolo[1,5-a]pyridin-4-yl)pyridin-2-yl)-4-methyl-piperidin-4-yl)-4-ethynylbenzamide]	0.35 nM	–
C#Cc1cc(CN2C3CC2CN(c2ccc(-c4cc(-c5cnn(C)c5)cn5ncc(C#N)c45)cn2)C3)ccc1F [Example 220, 4-(6-(3-(3-ethynyl-4-fluorobenzyl)-3,6-diazabicyclo[3.1.1]hept-3-yl)pyridin-3-yl)-6-(1-methyl-1H-pyrazol-4-yl)pyrazolo[1,5-a]pyridine-3-carbonitrile]	0.22 nM	–
C#Cc1cccc(CN2C3CC2CN(c2ccc(-c4cc(-c5cnn(C)c5)cn5ncc(C#N)c45)cn2)C3)c1F [Example 218, 4-(6-(6-(3-ethynyl-2-fluorobenzyl)-3,6-diazabicyclo[3.1.1]heptan-3-yl)pyridin-3-yl)-6-(1-methyl-1H-pyrazol-4-yl)pyrazolo[1,5-a]pyridine-3-carbonitrile]	0.52 nM	–
C#Cc1cc(CN2C3CC2CN(c2ccc(-c4cc(-c5cnn(C)c5)cn5ncc(C#N)c45)cn2)C3)ccn1 [Example 217, 4-(6-(6-((2-ethynylpyridin-4-yl)methyl)-3,6-diazabicyclo[3.1.1]heptan-3-yl)pyridin-3-yl)-6-(1-methyl-1H-pyrazol-4-yl)pyrazolo[1,5-a]pyridine-3-carbonitrile]	0.35 nM	–
C#Cc1cccc(C(=O)N2C3CC2CN(c2ccc(-c4cc(-c5cnn(C)c5)cn5ncc(C#N)c45)cn2)C3)c1 [Example 231, 4-(6-(6-(3-ethynyl)-3,6-diazabicyclo[3.1.1]heptan-3-yl)pyridin-3-yl)-6-(1-methyl-1H-pyrazol-4-yl)pyrazolo[1,5-a]pyridine-3-carbonitrile]	3.75 nM	–
C#Cc1cccc(C(C)N2C3CC2CN(c2ccc(-c4cc(-c5cnn(C)c5)cn5ncc(C#N)c45)cn2)C3)n1 (centres unmarked) [Example 219, 4-(6-(6-(1-(6-ethynylpyridin-2-yl)ethyl)-3,6-diazabicyclo[3.1.1]heptan-3-yl)pyridin-3-yl)-6-(1-methyl-1H-pyrazol-4-yl)pyrazolo[1,5-a]pyridine-3-carbonitrile]	2.9 nM	–
Cn1cc(-c2cc(-c3ccc(N4CC5(CCN(C(=O)C#Cc6ccccc6)CC5)C4)nc3)c3c(C#N)cnn3c2)cn1 [Example 269, 6-(1-methyl-1H-pyrazol-4-yl)-4-(6-(7-(3-phenylpropioloyl)-2,7-diazaspiro[3.5]nonan-2-yl)pyridin-3-yl)pyrazolo[1,5-a]pyridine-3-carbonitrile]	27 nM	–
Cn1cc(-c2cc(-c3ccc(N4CC5CC(C4)N5CC#Cc4ccc(C(F)(F)F)cc4)nc3)c3c(C#N)cnn3c2)cn1 [Example 242, 6-(1-methyl-1H-pyrazol-4-yl)-4-(6-(6-(3-(4-(trifluoromethyl)phenyl)prop-2-yn-1-yl)-3,6-diazabicyclo[3.1.1]heptan-3-yl)pyridin-3-yl)pyrazolo[1,5-a]pyridine-3-carbonitrile]	1.72 nM	–
C#Cc1ccc(C(=O)N2C3CC2CN(c2ccc(-c4cc(-c5cnn(C)c5)cn5ncc(C#N)c45)cn2)C3)cc1 [Example 230, 4-(6-(6-(4-ethynyl)-3,6-diazabicyclo[3.1.1]heptan-3-yl)pyridin-3-yl)-6-(1-methyl-1H-pyrazol-4-yl)pyrazolo[1,5-a]pyridine-3-carbonitrile]	1.05 nM	–
